≈ marks a conversion by molar mass, not a printed value.
Key:
Test in all cases: ≥ marks a high value that may be exact or a test limit, other limits are often not marked, values filed in µg/mL are converted to µM
[1] = system: Escherichia coli NCTC 10418
[2] = system: Candida albicans NCYC 1467
[3] = system: Staphylococcus aureus NCTC 10788
[4] = system: Staphylococcus epidermidis ATCC 12228
[5] = system: Pseudomonas aeruginosa ATCC 27853
[6] = system: Staphylococcus aureus ATCC 43300
[7] = system: Salmonella enterica subsp. enterica serovar Typhimurium C77-31
[8] = system: Escherichia coli ATCC 25922
[9] = system: Staphylococcus aureus ATCC 29213
[10] = system: Bacillus subtilis CMCC 63501
[11] = system: Salmonella enterica subsp. enterica serovar Pullorum C79-13
[12] = system: Enterococcus faecalis ATCC 29212
Escherichia coli UB1005 = system: Escherichia coli UB1005
Bacillus megaterium = system: Bacillus megaterium
[13] = system: Candida albicans ATCC 10231
[14] = system: Staphylococcus aureus ATCC 9144
Micrococcus luteus = system: Micrococcus luteus
[15] = system: Bacillus subtilis ATCC 23857
Aureobasidium pullulans = system: Aureobasidium pullulans
[16] = system: Corynebacterium glutamicum ATCC 13032
Escherichia coli K-12 = system: Escherichia coli K-12
[17] = system: Pseudomonas aeruginosa PAO1
[18] = system: Staphylococcus aureus NCTC 8325-4
Klebsiella pneumoniae = system: Klebsiella pneumoniae
[19] = system: Cryptococcus neoformans ATCC 28957
[20] = system: Candida albicans ATCC 90028
Enterococcus faecalis = system: Enterococcus faecalis
Acinetobacter baumannii = system: Acinetobacter baumannii
Staphylococcus aureus = system: Staphylococcus aureus
Pseudomonas aeruginosa = system: Pseudomonas aeruginosa
Escherichia coli = system: Escherichia coli
[21] = system: Staphylococcus epidermidis
[22] = system: Salmonella enterica subsp. enterica serovar Typhimurium ATCC 14028
Proteus mirabilis = system: Proteus mirabilis
Streptococcus pyogenes = system: Streptococcus pyogenes

CC[C@H](C)[C@H](NC(=O)[C@H](CCCCN)NC(=O)[C@H](CCCCN)NC(=O)[C@H](Cc1c[nH]c2ccccc12)NC(=O)[C@H](CC(C)C)NC(=O)[C@H](C)N)C(=O)N[C@@H](CC(C)C)C(=O)N[C@@H](CCCCN)C(=O)N[C@@H](CC(N)=O)C(=O)N[C@@H](C)C(=O)NCC(=O)N[C@@H](CCCCN)C(=O)N[C@@H](C)C(=O)N[C@@H](C)C(=O)N[C@@H](CC(C)C)C(=O)N[C@@H](CC(N)=O)C(=O)N[C@@H](CCCCN)C(=O)N[C@H](C(=O)N[C@@H](CC(N)=O)C(=O)N[C@@H](CCC(N)=O)C(=O)N[C@H](C(=O)N[C@H](C(=O)N[C@@H](CCC(N)=O)C(N)=O)C(C)C)[C@@H](C)CC)[C@@H](C)CC [ALWKKILKNAGKAALNKINQIVQ]
MIC [1]: 8 µM (≈ 20.5 µg/mL) | MIC [2]: 4 µM (≈ 10.2 µg/mL) | MIC [3]: 8 µM (≈ 20.5 µg/mL)

CC[C@H](C)[C@H](NC(=O)[C@H](CCCN=C(N)N)NC(=O)[C@H](CCCCN)NC(=O)[C@H](Cc1ccccc1)NC(=O)[C@H](CCC(=O)O)NC(=O)[C@H](CCCCN)NC(=O)CN)C(=O)N[C@H](C(=O)N[C@@H](Cc1c[nH]c2ccccc12)C(=O)N[C@@H](CC(C)C)C(=O)N[C@@H](CO)C(=O)N[C@@H](CCCCN)C(=O)N[C@H](C(=O)N[C@@H](C)C(=O)N[C@@H](CCCCN)C(=O)N[C@@H](CCCCN)C(=O)N[C@@H](CC(C)C)C(N)=O)[C@@H](C)O)C(C)C [GKEFKRIVWLSKTAKKL]
MIC [4]: > 128 µM | MIC [5]: > 128 µM | MIC [6]: > 128 µM | MIC [7]: ≥ 128 µM | MIC [8]: 32 µM (≈ 65 µg/mL) | MIC [9]: > 128 µM | MIC [10]: ≥ 128 µM | MIC [11]: 16 µM (≈ 32.5 µg/mL) | MIC [12]: > 128 µM | MIC (Escherichia coli UB1005): ≥ 128 µM

C[C@H](NC(=O)[C@H](CCCCN)NC(=O)[C@H](Cc1c[nH]c2ccccc12)NC(=O)CNC(=O)[C@H](Cc1c[nH]c2ccccc12)NC(=O)[C@H](Cc1c[nH]c2ccccc12)NC(=O)[C@H](CCCCN)NC(=O)[C@H](CCCCN)NC(=O)CN)C(=O)N[C@@H](CCCCN)C(N)=O [GKKWWGWKAK]
MIC (Bacillus megaterium): 0.785 µM (≈ 0.999 µg/mL) | MIC [13]: 24.6 µM (≈ 31.3 µg/mL) | MIC [5]: 196 µM (≈ 250 µg/mL) | MIC [14]: ≥ 196 µM | MIC [8]: 24.6 µM (≈ 31.3 µg/mL) | MIC (Micrococcus luteus): 12.2 µM (≈ 15.6 µg/mL) | MIC [15]: 12.2 µM (≈ 15.6 µg/mL) | MIC (Aureobasidium pullulans): 24.6 µM (≈ 31.3 µg/mL) | MIC [16]: 1.57 µM (≈ 2 µg/mL)

CC(C)[C@H](NC(=O)[C@H](CCCCN)NC(=O)[C@H](C)NC(=O)[C@@H](NC(=O)[C@@H](NC(=O)[C@H](CCCN=C(N)N)NC(=O)[C@H](CCCN=C(N)N)NC(=O)[C@H](Cc1c[nH]c2ccccc12)NC(=O)[C@H](Cc1c[nH]c2ccccc12)NC(=O)CN)[C@@H](C)O)C(C)C)C(=O)N[C@@H](C)C(=O)N[C@@H](CCCCN)C(N)=O [GWWRRTVAKVAK]
MIC [13]: 25 µM (≈ 36.4 µg/mL) | MIC [5]: 12.5 µM (≈ 18.2 µg/mL) | MIC [14]: ≥ 100 µM | MIC [8]: 12.5 µM (≈ 18.2 µg/mL) | MIC (Aureobasidium pullulans): ≥ 50 µM | MIC [16]: 1.6 µM (≈ 2.33 µg/mL)

CC[C@H](C)[C@H](N)C(=O)N[C@@H](CCCCN)C(=O)N[C@@H](CCCCN)C(=O)N[C@H](C(=O)N[C@H](C(=O)N[C@@H](CCCCN)C(=O)N[C@@H](CCCCN)C(=O)N[C@H](C(=O)N[C@H](C(=O)N[C@@H](CCCCN)C(N)=O)[C@@H](C)CC)[C@@H](C)CC)[C@@H](C)CC)[C@@H](C)CC [IKKIIKKIIK]
MIC (Escherichia coli K-12): ≥ 500 µM | MIC [17]: > 500 µM | MIC [18]: ≥ 500 µM | MIC (Klebsiella pneumoniae): > 500 µM

CC[C@H](C)[C@H](N)C(=O)N[C@H](C(=O)N[C@@H](CC(N)=O)C(=O)N[C@@H](Cc1cnc[nH]1)C(=O)N[C@@H](CC(C)C)C(=O)N[C@H](C(=O)N[C@@H](CCCCN)C(=O)N[C@@H](CC(C)C)C(=O)N[C@@H](Cc1ccccc1)C(=O)N[C@@H](CC(=O)O)C(=O)N[C@@H](CCCCN)C(=O)NCC(=O)N[C@@H](CC(C)C)C(=O)N[C@@H](CC(N)=O)C(=O)N[C@@H](CO)C(=O)N[C@H](C(=O)N[C@H](C(=O)N[C@@H](CC(N)=O)C(=O)N[C@@H](CC(C)C)C(=O)N[C@@H](CCCN=C(N)N)C(N)=O)C(C)C)[C@@H](C)CC)C(C)C)C(C)C [IVNHLVKLFDKGLNSIVNLR]
MIC [19]: ≥ 128 µM | MIC [15]: ≥ 64 µM | MIC [20]: ≥ 128 µM

CC(C)C[C@H](NC(=O)[C@H](CC(C)C)NC(=O)[C@H](CCCCN)NC(=O)[C@H](CCCCN)NC(=O)[C@H](C)NC(=O)[C@H](CC(C)C)NC(=O)[C@H](C)NC(=O)[C@H](CCCCN)NC(=O)[C@H](CC(C)C)NC(=O)[C@H](Cc1c[nH]c2ccccc12)NC(=O)[C@H](Cc1c[nH]c2ccccc12)NC(=O)[C@H](CCCN=C(N)N)NC(=O)[C@H](Cc1c[nH]c2ccccc12)NC(=O)[C@H](CCCCN)NC(=O)[C@@H](N)CCCCN)C(N)=O [KKWRWWLKALAKKLL]
MIC (Enterococcus faecalis): 0.356 µM (≈ 0.7 µg/mL) | MIC (Acinetobacter baumannii): 0.203 µM (≈ 0.4 µg/mL) | MIC (Staphylococcus aureus): 0.254 µM (≈ 0.5 µg/mL) | MIC (Pseudomonas aeruginosa): 0.61 µM (≈ 1.2 µg/mL)

CC[C@H](C)[C@H](NC(=O)CNC(=O)[C@H](CCCN=C(N)N)NC(=O)[C@H](Cc1ccc(O)cc1)NC(=O)[C@H](CC(C)C)NC(=O)[C@H](CCCCN)NC(=O)CNC(=O)[C@H](Cc1ccccc1)NC(=O)[C@@H](N)Cc1c[nH]c2ccccc12)C(=O)N[C@H](C(=O)N[C@@H](CO)C(=O)N[C@H](C(=O)N[C@H](C(=O)N[C@@H](CCCCN)C(=O)N[C@@H](CCCCN)C(=O)N[C@H](C(=O)N[C@@H](CCCCN)C(=O)NCC(=O)N[C@@H](CC(C)C)C(=O)N[C@@H](CC(C)C)C(=O)N[C@@H](CO)C(=O)NCC(=O)O)C(C)C)C(C)C)C(C)C)[C@@H](C)O [WFGKLYRGITSVVKKVKGLLSG]
MIC (Enterococcus faecalis): 2.6 µM (≈ 6.34 µg/mL) | MIC (Acinetobacter baumannii): 1.3 µM (≈ 3.17 µg/mL) | MIC (Escherichia coli): 1.3 µM (≈ 3.17 µg/mL) | MIC (Staphylococcus aureus): 10.3 µM (≈ 25.1 µg/mL) | MIC (Pseudomonas aeruginosa): 2.6 µM (≈ 6.34 µg/mL) | MIC [21]: 2.6 µM (≈ 6.34 µg/mL) | MIC (Klebsiella pneumoniae): 1.3 µM (≈ 3.17 µg/mL)

C[C@H](NC(=O)[C@H](C)NC(=O)[C@H](CCCCN)NC(=O)[C@H](C)NC(=O)[C@H](C)NC(=O)[C@H](C)NC(=O)[C@H](CCCCN)NC(=O)[C@H](Cc1c[nH]c2ccccc12)NC(=O)[C@@H](N)Cc1c[nH]c2ccccc12)C(=O)N[C@@H](C)C(=O)N[C@@H](CCCCN)C(=O)N[C@@H](Cc1c[nH]c2ccccc12)C(=O)N[C@@H](Cc1c[nH]c2ccccc12)C(N)=O [WWKAAAKAAAKWW]
MIC [4]: 4 µM (≈ 6.29 µg/mL) | MIC [5]: 8 µM (≈ 12.6 µg/mL) | MIC [8]: 2 µM (≈ 3.15 µg/mL) | MIC [9]: 4 µM (≈ 6.29 µg/mL) | MIC [22]: 8 µM (≈ 12.6 µg/mL) | MIC [10]: 4 µM (≈ 6.29 µg/mL) | MIC [11]: 2 µM (≈ 3.15 µg/mL) | MIC [12]: 4 µM (≈ 6.29 µg/mL) | MIC (Escherichia coli UB1005): 4 µM (≈ 6.29 µg/mL)

NC(N)=NCCC[C@H](NC(=O)[C@H](CCCN=C(N)N)NC(=O)[C@H](CCCN=C(N)N)NC(=O)[C@H](CCCN=C(N)N)NC(=O)[C@H](CCCN=C(N)N)NC(=O)[C@H](CCCN=C(N)N)NC(=O)[C@H](CCCN=C(N)N)NC(=O)[C@H](CCCN=C(N)N)NC(=O)[C@H](Cc1c[nH]c2ccccc12)NC(=O)[C@@H](N)Cc1c[nH]c2ccccc12)C(=O)O [WWRRRRRRRR]
MIC (Proteus mirabilis): ≥ 39 µM | MIC (Staphylococcus aureus): 5.49 µM (≈ 9 µg/mL) | MIC (Streptococcus pyogenes): 0.61 µM (≈ 1 µg/mL) | MIC (Pseudomonas aeruginosa): > 39 µM
